Assay results as given in patent US4256729A, “N,N'-Bis-(2,3-dihydroxypr opyl)-2,4,6-triiodo-5-(2-keto-L-gulonamido)isophthalamide and radiological compositions containing same” (Mallinckrodt, Inc., priority 1979, dated 1981).
Read-outs that look alike come from different tables or passages of the source.

Experiments:
[1] = Stability in aqueous solution by tlc and lc analysis; assay type: physicochemical; settings: Method I product
Description: (§1) The product was dissolved in water (sterile water for injection, 1 liter). The solution was evaporated to about 800 ml under reduced pressure at 55° and treated with active charcoal (Darco G-60, 7.0 g) at room temperature overnight. The solution was filtered (first through a Whatman #4 filter paper and then through a Millipore 0.22 μ filter paper), and the clear filtrate was evaporated under reduced pressure at 50°-60° to give a white glassy solid. The product, which was dried under vacuum at 50°-60° for 5 hours, weighed 53.0 g (60% yield). The compound softens at 190°-195° and decomposes above 220°. […] Nmr and ir data are consistent with the assigned structure IX. Elemental analysis: Calcd. for C20 H26 I3 N3 O12 : C, 27.26; H, 2.97; I, 43.21; N, 4.77; Found: C, 26.92; H, 3.15; I, 42.92; N, 4.40.

[2] = test system: cardiovascular and renal excretory systems; test: Radiographic observations in mouse (whole body radiographs after i.v. injection); assay type: in vivo; settings: male mouse, pentobarbital anesthetized; 10,000 mg I/kg i.v. (28% I solution), 1/2 ml/minute; immediately after administration; Method I product
Description: A male mouse (20 g) was anesthetized with sodium pentobarbital (60 mg/kg, i.p.; Diabutal®, Diamond Laboratories).

dogs = test: Acute intracisternal Neurotoxicity in Dogs; assay type: in vivo; settings: dosage range 200-244 mg I/kg, constant 0.5 ml/kg volume dose
Description: Adult dogs of either sex were employed for this procedure and were briefly anesthetized with thiopentol sodium during the injection of a solution of the compound. The PRODUCT was administered into cerebrospinal fluid at the cisterna magna at varying concentrations but at a constant 0.5 ml/kg volume dose. Animals were thereafter observed for neurotoxicity with the following results.

Solubility in water = assay type: physicochemical
Description: as §1
2. Solubility: ≥100% w/v.

Swiss mice [3] = test: Acute Intraveneous Toxicity in Mice; settings: i.v., 1 ml/min, 400 mg I/ml; seven day observation; 95% limits 18,161-20,510
Description: (§2) The following pharmacological studies were conducted on N,N'-bis-(2,3-dihydroxypropyl)-2,4,6-triiodo-5-(2-keto-L-gulonamido)isophthalamide prepared by Method II (PRODUCT).
(§3) A solution of the PRODUCT was injected into the lateral tail vein of young adult male and female Swiss mice at a rate of 1 ml/min.

in vivo [4] = settings: mouse, in vivo, iv
Description: as §2, §3

Swiss mice [5] = test: Acute Intracerebral Toxicity in Mice; settings: intracerebral, 250-400 mg I/ml; seven day observation; 95% limits 1,203-1,772
Description: as §2
(§4) Employing a slightly modified version of the techique developed by Haley and McCormick (Brit. J. Pharmacol. 12: 12-15, 1957), young adult male and female Swiss mice received injections of a solution of the PRODUCT directly into lateral ventricles and brain tissue.

in vivo [6] = settings: mouse, in vivo, icv or intrathecal
Description: as §2, §4

in vivo [7] = settings: rat, in vivo
Description: as §2
(§5) The technique described by Melartin et al. (Invest. Radiol. 5: 13-21, 1970) was utilized to evaluate lethal effects of a solution of the PRODUCT after injection into cerebrospinal fluid at the cisterna magna. Young adult male and female Sprague Dawley rats were used. After dosing, the animals were housed individually and observed for immediate reactions and periodically for a two day observation period.

Sprague Dawley rats = test: Acute Intracisternal Toxicity in Rats; settings: intracisternal, 444 mg I/ml; two day observation; 95% limits 582-951
Description: as §2, §5

[8] = test system: cisterna magna, basal cisterns, and cervical subarachnoid space; test: Radiographic observations in rat (lateral radiographs of head and thorax after intracisternal injection); assay type: in vivo; settings: male rat, pentobarbital anesthetized; 140 mg I/kg intracisternally (28% I solution); immediately and 3 minutes after administration; Method I product
Description: A pentobarbital anesthetized male rat received 140 mg I/kg of the N,N'-bis-(2,3-dihydroxypropyl)-2,4,6-triiodo-5-(2-keto-L-gulonamido)isophthalamide prepared by Method I, (28% I solution) intracisternally.

## O=C(Nc1c(I)c(C(=O)NCC(O)CO)c(I)c(C(=O)NCC(O)CO)c1I)C(=O)[C@@H](O)[C@H](O)[C@@H](O)CO (stereo partly drawn) [IX, N,N'-Bis-(2,3-dihydroxypropyl)-2,4,6-triiodo-5-(2-keto-L-gulonamido)isophthalamide]
[1]
  stability in aqueous solution: stable in aqueous solution
[2]
  opacification on whole body radiographs: opacification of the cardiovascular and renal excretory systems
dogs
  Minimum Convulsion Dose: > 244 mg I/kg
Solubility in water; Method II product
  solubility: ≥ 100 % w/v
Solubility in water; water, Method I product, read-out: solubility in water
  solubility: ≥ 1000 mg/mL
Swiss mice [3]
  LD50 /(95% Confidence Limits): 19,300 mg I/kg
In vivo [4]
  LD50 at 168 h: 44700 mg/kg
Swiss mice [5]
  LD50 /(95% Confidence Limits): 1,460 mg I/kg
In vivo [6]
  LD50 at 168 h: 3380 mg/kg
In vivo [7]
  LD50 at 48 h: 1720 mg/kg
Sprague Dawley rats
  LD50 /(95% Confidence Limits): 744 mg I/kg
[8]
  visualization on lateral radiographs of head and thorax: good visualization of the cisterna magna, basal cisterns, and cervical subarachnoid space
